# Assay results reported in patent publication US10273235B2, “Compositions and methods for inhibiting β-lactamase” (LegoChem Biosciences, Inc., priority 2015, dated 2019).
# Structures can show the parent of a compound that is named as a salt.
# Key:
# E. coli K0519020 = experiment: MIC of strain used for extraction of enzymes, E. coli K0519020 (CTX-M-15, TEM-1, OXA-1, AmpC (NC_000913)); format: cell-based; settings: BLI: 4 ug/mL
# [1] = target: T1, CMY-10 β-lactamase (class C) (Klebsiella aerogenes, UniProt Q99QC1); experiment: Inhibitory activity against β-lactamases (nitrocefin), CMY-10; format: biochemical
# T1 construct: MICs of bacterial strains used for extraction of enzymes; endogenous in cells
# Procedure: More diluted stocks were prepared as necessary. Enzyme activity was determined by monitoring the change of absorbance at 492 nm using the characteristic molecular extinction coefficient (Δε492=17,400 M^−1 cm^−1) of nitrocefin by a Shimazu UV-1650PC spectrophotometer. The nitrocefin was purchased from OXOID. Kinetic measurements were run at 30° C. in 10 mM MES[2-(N-morpholino)ethanesulfonic acid]buffer (pH 6.8) or 10 mM MES[2-(N-morpholino)ethanesulfonic acid] buffer (pH 6.8), […] BSA and 50 mM sodium bicarbonate. Reactions were performed in 2.5 mL cuvettes with 100 μM nitrocefin and initiated by adding 1.5 nM to 2.5 nM enzyme. The first 180 s of each reaction was used to measure initial rates. Data were evaluated using Microsoft Excel. Concentration dependent inhibition of enzyme was measured using different concentrations of inhibitors resulting from two-fold dilution series. Reaction progress at every concentration of inhibitor was measured in triplicates. IC50 values were calculated using 4-parameter log fits using XL Fit curve fitting software (www.idbs.com) for Excel using the following equation:
# [formula] where y is the remaining enzyme activity (in %) and x is the corresponding concentration. he fitted IC50 parameter is the relative IC50, and is defined as the concentration giving a response half way between the fitted top (B) and bottom (A) of the curve.
# E. coli ECO200 = experiment: MIC of strain used for extraction of enzymes, E. coli ECO200 (NDM-1, TEM-1, CTX-M-15, EC (AmpC), OXA-2 type); format: cell-based
# K. pneumoniae CL5761 = experiment: MIC of strain used for extraction of enzymes, K. pneumoniae CL5761 (KPC-3, TEM-216, SHV-5); format: cell-based; settings: BLI: 4 ug/mL
# Procedure: (§1) MIC90 (μg/mL) is the lowest concentration of an antibiotic that will inhibit the visible growth of 90% of microorganisms after incubation as compared with a control group to which the antibiotic is not treated.
# (§2) MIC values were measured by the broth microdilution method developed by the Clinical and Laboratory Standards Institute (CLSI) (see CLSI M07-A9, Methods for Dilution Antimicrobial Susceptibility Test for Bacteria that Grow Aerobically; Approved Standard-Ninth Edition (2012): CLSI, Villanova, Pa.). The in vitro antibacterial activity was measured with respect to the following 9 clinical isolates: P. aeruginosa (3 strains); K. pneumoniae (6 strains). The in vitro antibacterial activity of selected compounds was measured with respect to the following 15 clinical isolates: K. pneumoniae (15 strains).
# E. coli TOPDXA048 = experiment: MIC of strain used for extraction of enzymes, E. coli TOPDXA048 (OXA-48, TEM-116, AmpC (NC_000913)); format: cell-based
# E. aerogenes K9911729 = experiment: MIC of strain used for extraction of enzymes, E. aerogenes K9911729 (CMY-10, TEM-1, SHV-12, AmpC (DQ478697)); format: cell-based; settings: BLI: 4 ug/mL
# K. pneumoniae 5576 = experiment: BLI potentiation MIC, K. pneumoniae 5576 (SHV-11, CMY-2, DHA-1, TEM-1); format: cell-based; settings: Klebsiella pneumoniae, 5576, 19 h, read-out: MIC of Ceftazidime alone, no BLI; incubation 19 h
# Procedure: as §1, §2
# K. pneumoniae 4006 = experiment: BLI potentiation MIC, K. pneumoniae 4006 (SHV-12, CTX-M-15, TEM-1, OXA-9); format: cell-based; settings: Klebsiella pneumoniae, 4006, 19 h, read-out: MIC of Ceftazidime alone, no BLI; incubation 19 h
# Procedure: as §1, §2
# P. aeruginosa ATCC27853 = experiment: BLI potentiation MIC (broth microdilution), P. aeruginosa ATCC27853 (PoxB, AmpC); format: cell-based; settings: incubation 19 h; for MIC of Meropenem with BLI: BLI fixed 4 ug/ml
# Procedure: as §1, §2
# K. pneumoniae ATCC700603 = experiment: BLI potentiation MIC, K. pneumoniae ATCC700603 (SHV-3); format: cell-based; settings: Klebsiella pneumoniae, ATCC700603, 19 h, read-out: MIC of Ceftazidime alone, no BLI; incubation 19 h
# Procedure: as §1, §2
# K. pneumoniae 3784 = experiment: BLI potentiation MIC, K. pneumoniae 3784 (SHV-11, SHV-12, DHA-1); format: cell-based; settings: incubation 19 h; for MIC of Meropenem with BLI: BLI fixed 4 ug/ml
# Procedure: as §1, §2
# Mouse pharmacokinetics = format: in vivo, ICR mouse; settings: IV, 50 mg/kg, plasma; for AUC(0-inf) / Cmax / Tmax / clearance / half-life / Vd: ICR; for Vd: read-out: Vss
# Procedure: The pharmacokinetics values were evaluated in a mouse model. The test compound (50 mg/kg) was injected into the tail vein of 8 week old ICR mouse, weighing approximately 26-30 g. […] Lab conditions were temperature of 22±3° C. and humidity of 50±20%.
# K. pneumoniae 4248 = experiment: BLI potentiation MIC, K. pneumoniae 4248 (SHV-11, CTX-M-15, TEM-1, OXA-1); format: cell-based; settings: BLI fixed 4 ug/ml; incubation 19 h
# Procedure: as §1, §2
# P. aeruginosa ARC3506 = experiment: BLI potentiation MIC, P. aeruginosa ARC3506 (VEB-1, OXA-10, OprD−, AmpC); format: cell-based; settings: BLI fixed 4 ug/ml; incubation 19 h
# Procedure: as §1, §2
# P. aeruginosa ARC3514 = experiment: BLI potentiation MIC, P. aeruginosa ARC3514 (KPC-2, OprD−, AmpC); format: cell-based; settings: BLI fixed 4 ug/ml; incubation 19 h
# Procedure: as §1, §2
# K. pneumoniae NDM-506 = experiment: BLI potentiation MIC, K. pneumoniae NDM-506; format: cell-based; settings: BLI fixed 4 ug/ml; incubation 19 h
# Procedure: as §1, §2
# T1 sequence (Q99QC1 24-382): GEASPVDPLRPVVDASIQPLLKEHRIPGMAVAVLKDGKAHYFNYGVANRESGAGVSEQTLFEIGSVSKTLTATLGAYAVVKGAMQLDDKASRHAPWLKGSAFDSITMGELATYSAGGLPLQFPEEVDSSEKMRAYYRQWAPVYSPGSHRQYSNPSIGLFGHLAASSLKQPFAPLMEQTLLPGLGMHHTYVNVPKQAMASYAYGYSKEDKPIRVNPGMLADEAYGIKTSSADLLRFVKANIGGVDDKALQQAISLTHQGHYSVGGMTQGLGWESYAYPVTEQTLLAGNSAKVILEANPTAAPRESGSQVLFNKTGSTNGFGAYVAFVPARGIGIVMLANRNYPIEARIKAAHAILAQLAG
structure (smiles),measurement,setting,value
NC(=O)[C@@H]1CC[C@@H]2CN1C(=O)N2OS(=O)(=O)O [Avibactam],MIC of Meropenem with BLI,E. coli K0519020,0.25 µg/mL
same,MIC,"E. coli K0519020; Escherichia coli, K0519020, read-out: MIC of LCB10-0200 with BLI",0.25 µg/mL
same,IC50,[1],13 nM
same,MIC of Meropenem with BLI,E. coli ECO200; BLI: 4 ug/mL,>64 µg/mL
same,MIC,"E. coli ECO200; Escherichia coli, ECO200, read-out: MIC of LCB10-0200 with BLI",> 64 µg/mL
same,MIC of Meropenem with BLI,K. pneumoniae CL5761,1 µg/mL
same,MIC,"K. pneumoniae CL5761; Klebsiella pneumoniae, CL5761, read-out: MIC of LCB10-0200 with BLI",16 µg/mL
same,MIC of Meropenem with BLI,E. coli TOPDXA048; BLI: 4 ug/mL,0.5 µg/mL
same,MIC,"E. coli TOPDXA048; Escherichia coli, TOPDXA048, read-out: MIC of LCB10-0200 with BLI",0.25 µg/mL
same,MIC of Meropenem with BLI,E. aerogenes K9911729,0.5 µg/mL
same,MIC,"E. aerogenes K9911729; Klebsiella aerogenes, K9911729, read-out: MIC of LCB10-0200 with BLI",2 µg/mL
CC(C)(O/N=C(\C(=O)N[C@@H]1C(=O)N2C(C(=O)[O-])=C(C[n+]3ccccc3)CS[C@H]12)c1csc(N)n1)C(=O)O [Ceftazidime],MIC,K. pneumoniae 5576,> 64 µg/mL
same,MIC,K. pneumoniae 4006,> 64 µg/mL
same,MIC,"P. aeruginosa ATCC27853; Pseudomonas aeruginosa, ATCC27853, 19 h, read-out: MIC of Ceftazidime alone, no BLI",2 µg/mL
same,MIC,K. pneumoniae ATCC700603,32 µg/mL
same,MIC,"K. pneumoniae 3784; Klebsiella pneumoniae, 3784, 19 h, read-out: MIC of Ceftazidime alone, no BLI",> 64 µg/mL
"NCC1CC([C@@H]2CC[C@@H]3CN2C(=O)N3OS(=O)(=O)O)=NO1 (stereo partly drawn) [Example 2, [(2S,5R)-2-[5-(aminomethyl)-4,5-dihydroisoxazol-3-yl]-7-oxo-1,6-diazabicyclo[3.2.1]octan-6-yl] hydrogen sulfate]",AUC(0-inf),Mouse pharmacokinetics,34500 ± 3610 ng·h/mL
same,Cmax,Mouse pharmacokinetics,74.4 ± 3.44 µg/mL
same,Tmax,Mouse pharmacokinetics,4.8 min
same,clearance,Mouse pharmacokinetics,24.3 mL/min/kg
same,half-life,Mouse pharmacokinetics,88.2 ± 9.6 min
same,Vd,Mouse pharmacokinetics,1.57 ± 0.12 L/kg
same,AUCnorm,Mouse pharmacokinetics,0.69 ± 0.07 kg·h/L
same,"Cmax, norm",Mouse pharmacokinetics,1.49 ± 0.07 kg/L
"NCC1(CN)CC([C@@H]2CC[C@@H]3CN2C(=O)N3OS(=O)(=O)O)=NO1 [Example 5, [(2S,5R)-2-[5,5-bis(aminomethyl)-4H-isoxazol-3-yl]-7-oxo-1,6-diazabicyclo[3.2.1]octan-6-yl] hydrogen sulfate]",AUC(0-inf),Mouse pharmacokinetics,55300 ± 4160 ng·h/mL
same,Cmax,Mouse pharmacokinetics,103 ± 9.93 µg/mL
same,Tmax,Mouse pharmacokinetics,4.8 min
same,clearance,Mouse pharmacokinetics,15.2 mL/min/kg
same,half-life,Mouse pharmacokinetics,191 ± 93.6 min
same,Vd,Mouse pharmacokinetics,2.23 ± 0.61 L/kg
same,AUCnorm,Mouse pharmacokinetics,1.11 ± 0.08 kg·h/L
same,"Cmax, norm",Mouse pharmacokinetics,2.06 ± 0.20 kg/L
"NC(=O)CN1CCC2(CC([C@@H]3CC[C@@H]4CN3C(=O)N4OS(=O)(=O)O)=NO2)C1 (stereo partly drawn) [Example 12, [(2S,5R)-2-[7-(2-amino-2-oxo-ethyl)-1-oxa-2,7-diazaspiro[4.4]non-2-en-3-yl]-7-oxo-1,6-diazabicyclo[3.2.1]octan-6-yl] hydrogen sulfate]",MIC of Meropenem with BLI,K. pneumoniae 4248,0.125 µg/mL
same,MIC of Meropenem with BLI,P. aeruginosa ATCC27853,2 µg/mL
same,MIC of Meropenem with BLI,P. aeruginosa ARC3506,64 µg/mL
same,MIC of Meropenem with BLI,K. pneumoniae 3784,1 µg/mL
same,MIC of Meropenem with BLI,P. aeruginosa ARC3514,>64 µg/mL
same,MIC of Meropenem with BLI,K. pneumoniae NDM-506,>64 µg/mL
"NCC1(CO)CC([C@@H]2CC[C@@H]3CN2C(=O)N3OS(=O)(=O)O)=NO1 (stereo partly drawn) [Example 13, [(2S,5R)-2-[5-(aminomethyl)-5-(hydroxymethyl)-4H-isoxazol-3-yl]-7-oxo-1,6-diazabicyclo[3.2.1]octan-6-yl] hydrogen sulfate]",MIC of Meropenem with BLI,K. pneumoniae 4248,0.0625 µg/mL
same,MIC of Meropenem with BLI,P. aeruginosa ATCC27853,2 µg/mL
same,MIC of Meropenem with BLI,P. aeruginosa ARC3506,32 µg/mL
same,MIC of Meropenem with BLI,K. pneumoniae 3784,0.25 µg/mL
same,MIC of Meropenem with BLI,P. aeruginosa ARC3514,>64 µg/mL
same,MIC of Meropenem with BLI,K. pneumoniae NDM-506,>64 µg/mL
"NCC1(C(N)=O)CC([C@@H]2CC[C@@H]3CN2C(=O)N3OS(=O)(=O)O)=NO1 (stereo partly drawn) [Example 14, [(2S,5R)-2-[5-(aminomethyl)-5-carbamoyl-4H-isoxazol-3-yl]-7-oxo-1,6-diazabicyclo[3.2.1]octan-6-yl] hydrogen sulfate]",MIC of Meropenem with BLI,K. pneumoniae 4248,0.0625 µg/mL
same,MIC of Meropenem with BLI,P. aeruginosa ATCC27853,2 µg/mL
same,MIC of Meropenem with BLI,P. aeruginosa ARC3506,64 µg/mL
same,MIC of Meropenem with BLI,K. pneumoniae 3784,0.25 µg/mL
same,MIC of Meropenem with BLI,P. aeruginosa ARC3514,>64 µg/mL
same,MIC of Meropenem with BLI,K. pneumoniae NDM-506,>64 µg/mL
